Assay results published in patent publication US10570179B2, “Substituted urea depsipeptide analogs as activators of the CLPP endopeptidase” (priority 2016, dated 2020).
In brackets after ≈: the same amount, converted by molar mass. Numbered stars: 1 amine (or outer) side, 2 acyl side, 3 side chain; on linkers, the order of the positions; unused ones are H or OH. Bridge positions count the residues as written; N and C are the ends. Square brackets hold non-standard residues; d marks the D form. Peptide text beside a SMILES is read from it. * marks the point of attachment. ξ: configuration not given here. Piperazine(2S-CO,4-Me) = CN1CCN[C@H](C(=O)O)C1; Phe(3,5-Me2) = Cc1cc(C)cc(C[C@H](N)C(=O)O)c1; Phe(3-Me) = Cc1cccc(C[C@H](N)C(=O)O)c1; NH(4-Cl-2-F-phenyl) = Fc1cc(Cl)ccc1N*; Pro(4R-Me) = C[C@H]1CN[C@H](C(=O)O)C1; Hyp = O=C(O)[C@@H]1C[C@@H](O)CN1; ξNMeThr = CNC(C(=O)O)[C@@H](C)O; aThr = C[C@H](O)[C@H](N)C(=O)O; Pip = O=C(O)[C@@H]1CCCCN1; CO = O=C([*:1])[*:2]

Assays:
Plasma stability assay [1] = assay type: in vitro ADME, human; conditions: human, 10 μM
Protocol: (§1) The plasma stability property of early drug discovery compounds can influence the in vivo efficacy of the test compounds/drugs. Human and/or mouse plasma degradation is determined using multiple time points to monitor the rate of disappearance of the parent compound during incubation.
(§2) Sample preparation for plasma stability was modified from Di et al. (2005) Int. J. Pharm. 297(1-2): 110-119. A set of incubation times of 0, 3, 24, and 48 hour were used. DMSO stock solutions of test compounds were prepared at 10 mM concentration. 1.8 μL of each test compound was each added directly to 1.8 mL of human/mouse plasma to get the final concentration of 10 μM. This compound/matrix was mixed and 70 μL was transferred to 8 time points plates (each in triplicate wells). For the Time 0 plate, 210 μL of cold acetonitrile with internal standard (4 μg/mL warfarin) was added to each well and no incubation needed. For other seven time points' plate, the plate was incubated at 37° C. for required time, followed by quenching of the reaction by adding 210 μL of cold acetonitrile with internal standard (4 μg/ml warfarin) to each well. All of the plates were sealed and mixed well at 600 rpm for 10 min and were centrifuged at 4000 rpm for 20 min. The supernatants (120 μL) were transferred to analytical plates for analysis by LCMS. Conditions for Waters ACQUITY-UPLC-MS-UV system was described separately. The plasma stability was evaluated via the half-life from least-squares fit of the multiple time points based on first-order kinetics.

[2] = Plasma protein binding, rapid equilibrium dialysis; assay type: in vitro ADME, mouse; conditions: mouse, 4 h, 10 μM, pH 7.4
Protocol: (§3) This assay determines plasma protein binding of a drug/compound and free drug concentration in plasma using rapid equilibrium dialysis, which allow the aqueous component of plasma containing the free drug/compound through a dialysis membrane (MWCO˜8,000).
(§4) Solutions were prepared at 10 mM in DMSO. Dulbecco's phosphate buffered saline (DPBS; pH 7.4) was obtained from Invitrogen (Carlsbad, Calif.). Single-Use RED (rapid equilibrium dialysis) device was obtained from Thermo scientific (Rockford, Ill.). Human plasma was obtained from Innovative Research INC (Novi, Michigan, Ill).
(§5) Sample preparation for plasma protein binding was modified from Waters' method. (Waters et al. (2008) J. Pharm. Sci. 97(10): 4586-95). The Teflon base plate with the RED inserts (MWCO 8 K) were allowed to use without any pre-condition the membrane inserts. Human plasma was thawed and centrifuged at 1000 rpm for 2 min to remove any particulates. Each compound was prepared at 10 μM in human plasma. This was done by adding 1 μL, of drug solution (10 mM in DMSO) to 1000 μL, of human plasma (0.1% DMSO). Spiked plasma solutions (300 μL) were placed into the sample chamber (indicated by the red ring) and 500 μL, of DPBS into the adjacent chamber. The plate was sealed and incubated at 37° C. on an orbital shaker (100 rpm) for 4 hours. After incubation, the seal was removed from the RED plate and the volume of the insert confirmed—little to no volume change occurred. Aliquots (50 μL) were removed from each side of the insert and dispensed into a 96-well deep plate. An equal volume of blank plasma or DPBS was added to the required wells to create analytically identical sample matrices (matrix matching). To each sample 200 μL, of ACN containing 4 μg/mL warfarin IS was added. All of the plates were sealed and mixed well at 600 rpm for 10 min and were centrifuged at 4000 rpm for 20 min. The supernatants (120 μL) were transferred to analytical plates for analysis by LCMS. Conditions for Waters ACQUITY-UPLC-MS-UV system were described separately. The test compound concentrations were quantified in both buffer and plasma chambers via peak areas relative to the internal standard. The percentage of the test compound bound to plasma was calculated on following equations: % Free=(Concentration buffer chamber/concentration plasma chamber)×100% and % Bound=100%-% Free.

Plasma stability assay [3] = assay type: in vitro ADME, mouse; conditions: mouse, 10 μM
Protocol: as §1, §2

[4] = Plasma protein binding, rapid equilibrium dialysis; assay type: in vitro ADME, human; conditions: human, 4 h, 10 μM, pH 7.4
Protocol: as §3, §4, §5

MRSA NRS70 = assay: Minimal inhibitory concentration, microbroth dilution; assay type: cell-based; conditions: Staphylococcus aureus; MIC; read-out: Minimal Inhibitory Concentrations (μM) MRSA NRS70
Method in brief: (§6)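 Susceptibility testing used the CLSI dilution standard, with bacteria at ~10^5 cfu/mL exposed to a two-fold compound series beginning at 200 μM final. The endpoint is the lowest concentration showing no growth after overnight incubation (37 °C, aerobic).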

E. faecails = assay: as above; assay type: cell-based; conditions: Enterococcus faecalis; MIC; read-out: Minimal Inhibitory Concentrations (μM) E. faecails
Method in brief: as §6

S. aureus ATCC 29213 = assay: as above; assay type: cell-based; conditions: Staphylococcus aureus, ATCC29213; MIC; read-out: Minimal Inhibitory Concentrations (μM) S. aureus ATCC 29213
Method in brief: as §6

S. aureus USA 300 = assay: as above; assay type: cell-based; conditions: Staphylococcus aureus, USA300; MIC; read-out: Minimal Inhibitory Concentrations (μM) S. aureus USA 300
Method in brief: as §6

SMILES	Human (hr) (Plasma stability assay [1])	Mouse [2]	Mouse (hr) (Plasma stability assay [3])	Human [4]	MIC (MRSA NRS70)	MIC (E. faecails)	MIC (S. aureus ATCC 29213)	MIC (S. aureus USA 300)	Human (Plasma stability assay [1])	Mouse (Plasma stability assay [3])
Cc1cc(C)cc(C[C@H](NC(=O)Nc2ccc(Cl)cc2F)C(=O)N[C@@H]2C(=O)N3CCC[C@H]3C(=O)N3CCCC[C@H]3C(=O)N[C@@H](C)C(=O)N3C[C@H](C)C[C@H]3C(=O)O[C@H]2C)c1 [Compound 4, (S)-2-(3-(4-CHLORO-2-FLUOROPHENYL)UREIDO)-3-(3,5-DIMETHYLPHENYL)-N-((2R,6S,8AS,14AS,20S,21S,23AS)-2,6,21-TRIMETHYL-5,8,14,19,23-PENTAOXOOCTADECAHYDRO-1H,5H,14H,19H-PYRIDO[2,1-I]DIPYRROLO[2,1-C:2′,1′-L][1]OXA[4,7,10,13]TETRAAZACYCLOHEXADECIN-20-YL)PROPANAMIDE] ({NH(4-Cl-2-F-phenyl)-CO}-[Phe(3,5-Me2)][aThr]P[Pip]A[Pro(4R-Me)]; ester 2-C)	>>48 hr	99.8 ± 0.0%	>>48 hr	99.8 ± 0.2%	0.156 µM (≈ 0.131 µg/mL)	1.25 µM (≈ 1.05 µg/mL)	0.625 µM (≈ 0.524 µg/mL)	0.625 µM (≈ 0.524 µg/mL)		
Cc1cccc(C[C@H](NC(=O)Nc2ccc(Cl)cc2F)C(=O)N[C@@H]2C(=O)N3CCC[C@H]3C(=O)N(C)C([C@@H](C)O)C(=O)N[C@@H](C)C(=O)N3C[C@H](C)C[C@H]3C(=O)O[C@H]2C)c1 (stereo partly drawn) [Compound 5] ({NH(4-Cl-2-F-phenyl)-CO}-[Phe(3-Me)][aThr]P[ξNMeThr]A[Pro(4R-Me)]; ester 2-C)		98.6 ± 0.5%		98.0 ± 1.0%	0.078 µM (≈ 0.0646 µg/mL)	0.156 µM (≈ 0.129 µg/mL)	0.078 µM (≈ 0.0646 µg/mL)	0.078 µM (≈ 0.0646 µg/mL)	>50 h	>50 h
Cc1cccc(C[C@H](NC(=O)Nc2ccc(Cl)cc2F)C(=O)N[C@@H]2C(=O)N3C[C@H](O)C[C@H]3C(=O)N3CCCC[C@H]3C(=O)N[C@@H](C)C(=O)N3C[C@H](C)C[C@H]3C(=O)O[C@H]2C)c1 [Compound 6, (S)-2-(3-(4-CHLORO-2-FLUOROPHENYL)UREIDO)-N-((2R,6S,8AS,14AS,16R,20S,21S,23AS)-16-HYDROXY-2,6,21-TRIMETHYL-5,8,14,19,23-PENTAOXOOCTADECAHYDRO-1H,5H,14H,19H-PYRIDO[2,1-I]DIPYRROLO[2,1-C:2′,1′-L][1]OXA[4,7,10,13]TETRAAZACYCLOHEXADECIN-20-YL)-3-(M-TOLYL)PROPANAMIDE] ({NH(4-Cl-2-F-phenyl)-CO}-[Phe(3-Me)][aThr][Hyp][Pip]A[Pro(4R-Me)]; ester 2-C)		99.5 ± 0.1%		99.7 ± 0%	0.078 µM (≈ 0.0655 µg/mL)	0.078 µM (≈ 0.0655 µg/mL)	0.078 µM (≈ 0.0655 µg/mL)	0.156 µM (≈ 0.131 µg/mL)	>50 h	>50 h
Cc1cccc(C[C@H](NC(=O)Nc2ccc(Cl)cc2F)C(=O)N[C@H]2COC(=O)[C@@H]3C[C@@H](C)CN3C(=O)[C@H](C)NC(=O)[C@@H]3CCCCN3C(=O)[C@@H]3CCCN3C2=O)c1 [Compound 8, (S)-2-(3-(4-CHLORO-2-FLUOROPHENYL)UREIDO)-N-((2R,6S,8AS,14AS,20S,23AS)-2,6-DIMETHYL-5,8,14,19,23-PENTAOXOOCTADECAHYDRO-1H,5H,14H,19H-PYRIDO[2,1-I]DIPYRROLO[2,1-C:2′,1′-L][1]OXA[4,7,10,13]TETRAAZACYCLOHEXADECIN-20-YL)-3-(M-TOLYL)PROPANAMIDE]		98.9 ± 0.4%		98.2 ± 0.2%	0.156 µM (≈ 0.126 µg/mL)	0.156 µM (≈ 0.126 µg/mL)	0.625 µM (≈ 0.506 µg/mL)	0.313 µM (≈ 0.254 µg/mL)	34.37 h	>50 h
Cc1cccc(C[C@H](NC(=O)Nc2ccc(Cl)cc2F)C(=O)N[C@H]2COC(=O)[C@@H]3C[C@@H](C)CN3C(=O)[C@H](C)NC(=O)[C@@H]3CCCCN3C(=O)[C@@H]3C[C@@H](O)CN3C2=O)c1 [Compound 10]		99.7 ± 0.0%		99.7 ± 0.2%	0.313 µM (≈ 0.259 µg/mL)	0.313 µM (≈ 0.259 µg/mL)	0.313 µM (≈ 0.259 µg/mL)	0.313 µM (≈ 0.259 µg/mL)	58.50 h	>50 h
Cc1cccc(C[C@H](NC(=O)Nc2ccc(Cl)cc2F)C(=O)N[C@@H]2C(=O)N3CCC[C@H]3C(=O)N3CCN(C)C[C@H]3C(=O)N[C@@H](C)C(=O)N3C[C@H](C)C[C@H]3C(=O)O[C@H]2C)c1 [Compound 11, (S)-2-(3-(4-CHLORO-2-FLUOROPHENYL)UREIDO)-N-((6AS,12S,13S,15AS,17R,21S,23AS)-2,13,17,21-TETRAMETHYL-6,11,15,20,23-PENTAOXOOCTADECAHYDRO-2H,6H,11H,15H-PYRAZINO[2,1-I]DIPYRROLO[2,1-C:2′,1′-L][1]OXA[4,7,10,13]TETRAAZACYCLOHEXADECIN-12-YL)-3-(M-TOLYL)PROPANAMIDE] ({NH(4-Cl-2-F-phenyl)-CO}-[Phe(3-Me)][aThr]P[Piperazine(2S-CO,4-Me)]A[Pro(4R-Me)]; ester 2-C)		98.8 ± 0.4%		97.9 ± 0.3%	0.078 µM (≈ 0.0655 µg/mL)	0.078 µM (≈ 0.0655 µg/mL)	0.078 µM (≈ 0.0655 µg/mL)	0.078 µM (≈ 0.0655 µg/mL)	44.21 h	36.62 h
Cc1cccc(C[C@H](NC(=O)Nc2ccc(Cl)cc2F)C(=O)N[C@H]2COC(=O)[C@@H]3C[C@@H](C)CN3C(=O)[C@H](C)NC(=O)[C@@H]3CCCCN3C(=O)[C@@H]3C[C@H](N)CN3C2=O)c1 [Compound 12, (S)—N-((2R,6S,8AS,14AS,16S,20S,23AS)-16-AMINO-2,6-DIMETHYL-5,8,14,19,23-PENTAOXOOCTADECAHYDRO-1H,5H,14H,19H-PYRIDO[2,1-I]DIPYRROLO[2,1-C:2′,1′-L][1]OXA[4,7,10,13]TETRAAZACYCLOHEXADECIN-20-YL)-2-(3-(4-CHLORO-2-FLUOROPHENYL)UREIDO)-3-(M-TOLYL)PROPANAMIDE]		99.6 ± 0.0%		99.9 ± 0.2%	1.25 µM (≈ 1.03 µg/mL)	1.25 µM (≈ 1.03 µg/mL)	1.25 µM (≈ 1.03 µg/mL)	0.625 µM (≈ 0.516 µg/mL)	38.58 h	18.63 h
